Laboratory results: US11052092B2, “N-{[2-(piperidin-1-yl)phenyl](phenyl)methyl}-2-(3-oxo-3,4-dihydro-2H-1,4-benzoxazin-7-yl)acetamide derivatives and related compounds as ROR-gamma modulators for treating autoimmune diseases” (Genfit, priority 2017, dated 2021)
Where a name gives a salt, the structure may show the parent alone.

How the values were obtained:
human RORγt = biological target: T1, human RORγt (Homo sapiens, UniProt P51449); experiment: RORE Luciferase/RORγt transactivation assay; type: cell-based; conditions: COS-7 cells transfected with human IL-17 promoter luciferase reporter and RORγt plasmid; 20 h with compound; read-out: IC50, RORγt activity inhibition
T1 construct: the full-length cDNA of human RORγt; expressed in transfected cells; host or cells: COS-7 (monkey kidney)
T1 sequence (P51449 1-497 isoform P51449-2): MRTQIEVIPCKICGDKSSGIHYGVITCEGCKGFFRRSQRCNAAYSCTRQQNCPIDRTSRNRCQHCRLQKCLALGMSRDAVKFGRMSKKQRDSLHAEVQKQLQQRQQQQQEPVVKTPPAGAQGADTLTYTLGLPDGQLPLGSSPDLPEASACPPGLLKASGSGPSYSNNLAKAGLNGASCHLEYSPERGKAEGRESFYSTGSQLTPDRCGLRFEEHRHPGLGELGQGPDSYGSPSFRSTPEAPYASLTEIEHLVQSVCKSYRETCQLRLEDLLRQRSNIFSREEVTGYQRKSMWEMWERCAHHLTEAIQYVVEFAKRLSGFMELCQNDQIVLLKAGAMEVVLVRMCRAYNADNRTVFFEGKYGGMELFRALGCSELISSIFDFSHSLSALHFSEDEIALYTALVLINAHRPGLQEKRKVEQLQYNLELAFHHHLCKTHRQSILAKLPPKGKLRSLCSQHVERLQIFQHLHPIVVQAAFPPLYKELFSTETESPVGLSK
Procedure: It is well known that RORγ binds to a conserved non-coding sequence (CNS) enhancer element in the IL-17 promoter.
Culture medium was changed every 2 days.
The 4.3 Kb human IL-17 promoter containing the RORγ-specific CNS enhancer element was PCR amplified from human genomic DNA and cloned into a pGL3-TKLuc2Cp reporter plasmid.
The luciferase reporter plasmid and the RORγt overexpression plasmid were transfected into COS-7 cell line using 4 μLJetPEI™/μg of DNA. Briefly, 150 ng of DNA (ration ½ between RORE-Tk Luc2Cp and cDNA RORγt or the empty vector for the negative control) was served to transfect adherent COS-7 cells in a […] culture flask, in complete medium (see cos-7 cell line culture).
Cells were then detached (using trypsin) and washed by centrifugation at 300 g for 10 minutes. Cell pellet was resuspended in serum free/phenol red free DMEM and seeded in 384 well plates at a density of 10000 cells/well and then incubated for 4 h at 37° C.
Compounds were dissolved in 100% DMSO to obtain 10 mM stock solutions. For each compound, test concentrations were diluted in serum free/phenol red free DMEM using the Genesis Freedom 200™ (TECAN) and added to the cells to obtain a 0.3% DMSO final concentration (in a final volume of 40 μL per well).
The luciferase activity was then measured with 40 μL/well steady-Glo Luciferase assay system (Promega, Madison, Wis.) and after incubation at room temperature for 30 minutes. The luminescence was estimated using the Ultra384 reader (TECAN). Data were collected and analyzed using GraphPad Prism software (GraphPad Software V5.02, San Diego Calif. USA). IC50 in μM and Emax in % were reported for each compound.

Row | melting point | IC50 (human RORγt) | Compound
1 | 102 °C | – | Cc1ccc(C(NC(=O)C2(c3ccc4c(c3)OCS(=O)(=O)N4)CC2)c2ccc(Cl)o2)c(C)c1 (centres unmarked) (as salt: HCl) [Cpd. 149, N-[(5-chlorofuran-2-yl)(2,4-dimethylphenyl)methyl]-1-(2,2-dioxo-1,3-dihydro-4,2,1-benzoxathiazin-6-yl)cyclopropane-1-carboxamide]
2 | 78 °C | – | Cc1ccc(C(NC(=O)C2(c3ccc4c(c3)CC(=O)N4)CC2)c2ccc(Cl)o2)c(C)c1 (centres unmarked) (as salt: HCl) [Cpd. 86, N-[(5-chlorofuran-2-yl)(2,4-dimethylphenyl)methyl]-1-(2-oxo-2,3-dihydro-1H-indol-5-yl)cyclopropane-1-carboxamide]
3 | 68 °C | – | Cc1ccc(C(NC(=O)C2(c3ccc4c(c3)CN(S(C)(=O)=O)C4)CC2)c2ccc(Cl)o2)c(C)c1 (centres unmarked) (as salt: HCl) [Cpd. 56, N-[(5-chlorofuran-2-yl)(2,4-dimethylphenyl)methyl]-1-(2-methanesulfonyl-2,3-dihydro-1H-isoindol-5-yl)cyclopropane-1-carboxamide]
4 | 102 °C | – | Cc1ccc(C(NC(=O)C2(c3cc(F)c4c(c3)CC(=O)N4)CC2)c2ccc(C)o2)c(C)c1 (centres unmarked) (as salt: HCl) [Cpd. 158, N-[(2,4-dimethylphenyl)(5-methylfuran-2-yl)methyl]-1-(7-fluoro-2-oxo-2,3-dihydro-1H-indol-5-yl)cyclopropane-1-carboxamide]
5 | 99 °C | – | Cc1ccc(C(NC(=O)C2(c3ccc4c(c3)OCC(=O)N4)CC2)c2ccc(C)o2)c(N(C)C)c1 (centres unmarked) (as salt: HCl) [Cpd. 156, N-{[2-(dimethylamino)-4-methylphenyl](5-methylfuran-2-yl)methyl}-1-(3-oxo-3,4-dihydro-2H-1,4-benzoxazin-7-yl)cyclopropane-1-carboxamide]
6 | 70 °C | – | Cc1ccc(C(NC(=O)C2(c3ccc4c(c3)CN(S(C)(=O)=O)C4)CC2)c2ccc(C)o2)c(N(C)C)c1 (centres unmarked) (as salt: HCl) [Cpd. 76, N-{[2-(dimethylamino)-4-methylphenyl](5-methylfuran-2-yl)methyl}-1-(2-methanesulfonyl-2,3-dihydro-1H-isoindol-5-yl)cyclopropane-1-carboxamide]
7 | 83 °C | – | Cc1ccc(C(NC(=O)Cc2ccc3c(c2)CN(S(C)(=O)=O)C3)c2ccc(C)o2)c(N2CCCCC2)c1 (centres unmarked) (as salt: HCl) [Cpd. 41, 2-(2-methanesulfonyl-2,3-dihydro-1H-isoindol-5-yl)-N-{[4-methyl-2-(piperidin-1-yl)phenyl](5-methylfuran-2-yl)methyl}acetamide]
8 | 70 °C | – | Cc1ccc(C(NC(=O)C2(c3ccc4c(c3)CS(=O)(=O)N4C)CC2)c2ccc(C)o2)c(C)c1 (centres unmarked) (as salt: HCl) [Cpd. 70, N-[(2,4-dimethylphenyl)(5-methylfuran-2-yl)methyl]-1-(1-methyl-2,2-dioxo-1,3-dihydro-2,1-benzothiazol-5-yl)cyclopropane-1-carboxamide]
9 | 99 °C | – | Cc1ccc(C(NC(=O)C2(c3ccc4c(c3)OCC(=O)N4)CC2)c2ccc(Cl)cc2)c(C)c1 (centres unmarked) (as salt: HCl) [Cpd. 140, N-[(4-chlorophenyl)(2,4-dimethylphenyl)methyl]-1-(3-oxo-3,4-dihydro-2H-1,4-benzoxazin-7-yl)cyclopropane-1-carboxamide]
10 | 83 °C | – | Cc1ccc(C(NC(=O)Cc2ccc3c(c2)CS(=O)(=O)N3CC2CCOCC2)c2ccc(C)o2)c(C)c1 (centres unmarked) (as salt: HCl) [Cpd. 166, N-[(2,4-dimethylphenyl)(5-methylfuran-2-yl)methyl]-2-[1-(oxan-4-ylmethyl)-2,2-dioxo-1,3-dihydro-2,1-benzothiazol-5-yl]acetamide]
11 | 199 °C | – | Cc1ccc(C(NC(=O)C2(c3ccc4c(c3)OCC(=O)N4)CC2)c2ccc(Cl)o2)c(N2CCCCC2)c1 (centres unmarked) (as salt: HCl) [Cpd. 145, N-[(5-chlorofuran-2-yl)[4-methyl-2-(piperidin-1-yl)phenyl]methyl]-1-(3-oxo-3,4-dihydro-2H-1,4-benzoxazin-7-yl)cyclopropane-1-carboxamide]
12 | 68 °C | – | Cc1ccc(C(NC(=O)C2(c3ccc4c(c3)CCC4=NO)CC2)c2ccc(C)o2)c(C)c1 (centres unmarked) (as salt: HCl) [Cpd. 165, N-[(2,4-dimethylphenyl)(5-methylfuran-2-yl)methyl]-1-[1-(hydroxyimino)-2,3-dihydro-1H-inden-5-yl]cyclopropane-1-carboxamide]
13 | 155 °C | – | Cc1ccc(C(NC(=O)Cc2cccc3c2CN(S(C)(=O)=O)C3)c2ccc(C)o2)c(N2CCCCC2)c1 (centres unmarked) (as salt: HCl) [Cpd. 50, 2-(2-methanesulfonyl-2,3-dihydro-1H-isoindol-4-yl)-N-{[4-methyl-2-(piperidin-1-yl)phenyl](5-methylfuran-2-yl)methyl}acetamide]
14 | 74 °C | – | Cc1ccc(C(NC(=O)Cc2ccc3c(c2)CCC3=O)c2ccc(C)o2)c(N2CCCCC2)c1 (centres unmarked) (as salt: HCl) [Cpd. 51, N-{[4-methyl-2-(piperidin-1-yl)phenyl](5-methylfuran-2-yl)methyl}-2-(1-oxo-2,3-dihydro-1H-inden-5-yl)acetamide]
15 | 107 °C | – | Cc1ccc(C(NC(=O)Cc2ccc3[nH]cc(CCS(C)(=O)=O)c3c2)c2ccc(C)o2)c(N2CCCCC2)c1 (centres unmarked) (as salt: HCl) [Cpd. 98, 2-[3-(2-methanesulfonylethyl)-1H-indol-5-yl]-N-{[4-methyl-2-(piperidin-1-yl)phenyl](5-methylfuran-2-yl)methyl}acetamide]
16 | 55 °C | – | COCC(=O)N1Cc2ccc(C3(C(=O)NC(c4ccc(C)o4)c4ccc(C)cc4C)CC3)cc2C1 (centres unmarked) (as salt: HCl) [Cpd. 122, N-[(2,4-dimethylphenyl)(5-methylfuran-2-yl)methyl]-1-[2-(2-methoxyacetyl)-2,3-dihydro-1H-isoindol-5-yl]cyclopropane-1-carboxamide]
17 | – | 10 to 100 nM | Cc1ccc(C(NC(=O)Cc2ccc3c(c2)CS(=O)(=O)N3CC2CCOCC2)c2ccc(C)o2)c(C)c1 (centres unmarked) [Cpd. 166, N-[(2,4-dimethylphenyl)(5-methylfuran-2-yl)methyl]-2-[1-(oxan-4-ylmethyl)-2,2-dioxo-1,3-dihydro-2,1-benzothiazol-5-yl]acetamide]
18 | – | 10 to 100 nM | Cc1ccc(C(NC(=O)C2(c3ccc4[nH]cc(C(C)(C)CO)c4c3)CC2)c2ccc(C)o2)c(C)c1 (centres unmarked) [Cpd. 170, N-[(2,4-dimethylphenyl)(5-methylfuran-2-yl)methyl]-1-[3-(1-hydroxy-2-methylpropan-2-yl)-1H-indol-5-yl]cyclopropane-1-carboxamide]
19 | – | 100 to 1000 nM | Cc1ccc(C(NC(=O)C2(c3ccc4c(c3)COC(C)(C)O4)CC2)c2ccc(C)o2)c(C)c1 (centres unmarked) [Cpd. 169, 1-(2,2-dimethyl-2,4-dihydro-1,3-benzodioxin-6-yl)-N-[(2,4-dimethylphenyl)(5-methylfuran-2-yl)methyl]cyclopropane-1-carboxamide]
20 | – | 10 to 100 nM | Cc1ccc(C(NC(=O)C2(c3ccc4c(c3)OCC(=O)N4)CC2)c2cccc(Cl)c2)c(C)c1 (centres unmarked) [Cpd. 143, N-[(3-chlorophenyl)(2,4-dimethylphenyl)methyl]-1-(3-oxo-3,4-dihydro-2H-1,4-benzoxazin-7-yl)cyclopropane-1-carboxamide]
21 | – | 100 to 1000 nM | Cc1ccc(C(NC(=O)Cc2ccc3c(c2)OCS(=O)(=O)N3)c2ccc(C)o2)c(Br)c1 (centres unmarked) [Cpd. 150, N-[(2-bromo-4-methylphenyl)(5-methylfuran-2-yl)methyl]-2-(2,2-dioxo-1,3-dihydro-4,2,1-benzoxathiazin-6-yl)acetamide]
22 | – | 10 to 100 nM | Cc1ccc(C(NC(=O)C2(c3cc(F)c4c(c3)CC(=O)N4)CC2)c2ccc(C)o2)c(C)c1 (centres unmarked) [Cpd. 158, N-[(2,4-dimethylphenyl)(5-methylfuran-2-yl)methyl]-1-(7-fluoro-2-oxo-2,3-dihydro-1H-indol-5-yl)cyclopropane-1-carboxamide]
23 | – | 10 to 100 nM | Cc1ccc(C(NC(=O)C2(c3ccc4c(c3)OCS(=O)(=O)N4)CC2)c2ccc(Cl)o2)c(C)c1 (centres unmarked) [Cpd. 149, N-[(5-chlorofuran-2-yl)(2,4-dimethylphenyl)methyl]-1-(2,2-dioxo-1,3-dihydro-4,2,1-benzoxathiazin-6-yl)cyclopropane-1-carboxamide]
